The nature of data set [1]: NOVARTIS: Cytotoxicity against human hepatocellular carcinoma cell line (Huh7). The class given is toxicity, cell-based, Huh-7. The settings on record: Huh7 cells (hepatocellular carcinoma cell line).
The subject of data set [2] is Plasmodium falciparum. Kind of data set: NOVARTIS: Inhibition of Plasmodium falciparum 3D7 (drug-susceptible) proliferation in erythrocyte-based infection assay. It is filed as functional, organism-based. Particulars: Plasmodium falciparum, 3D7.
Data set [3] has as its system Plasmodium falciparum. Kind of data set: NOVARTIS: Inhibition of Plasmodium falciparum W2 (drug-resistant) proliferation in erythrocyte-based infection assay. Particulars: Plasmodium falciparum, W2; read-out: EC50. The class given is functional, organism-based.

The term CC50 denotes the concentration that lowers cell viability or growth by half. Broadly, the EC50 is the midpoint of the concentration-response curve.

Regarding `COC(=O)C1=C(O)/C(=C\c2cc(C)n(-c3ccccc3F)c2C)N=C1C`, the CC50 in data set [1] was over 10000 nM. The EC50 in data set [2] is over 974 nM; in data set [3] it was over 1250 nM.
As for `N#Cc1nc(C(=O)N2CCOCC2)oc1N1CCOCC1`, the CC50 in data set [1] is over 10000 nM. The EC50 in data set [2] was 995 nM; in data set [3], over 1250 nM.
Turning to `CC(C)Sc1nc2c(c(=O)n1Cc1ccco1)C1(CCCCC1)Cc1ccccc1-2`, the CC50 in data set [1] is over 100000 nM. Moreover, the EC50 in data set [2] was 9560 nM; in data set [3], over 12500 nM.
For `CCOC(=O)C1=C(C)N=c2sc(=Cc3ccccc3OCc3ccccc3)c(=O)n2C1c1ccccc1OC(C)C` (configuration not stated) the same measures were over 100000 nM, 9730 nM and over 12500 nM.
Turning to `Cc1ccn(C(=O)NCCNC(=O)Nc2ccc(Cc3ccc(NC(=O)NCCNC(=O)n4ccc(C)n4)cc3)cc2)n1`, the CC50 in data set [1] is over 10000 nM. For the same compound, the results for the EC50 in data set [2] and in data set [3] were over 953 nM and over 1250 nM, respectively.
For `COc1cccc(CN2CCN(C(=O)c3c(C)noc3C)[C@@H](C)C2)c1` the same measures were over 10000 nM, over 936 nM and over 1250 nM.
As to `CON(C)C(=O)c1cccc2ccccc12`, the CC50 in data set [1] was over 10000 nM. The EC50 in data set [2] was 856 nM; in data set [3], over 1250 nM.
For `Cc1ccc(N=C2C(=O)Nc3ccc(C)c(Br)c32)c(O)c1` the same measures were over 10000 nM, over 963 nM and over 1250 nM.
For `CCOc1ccc(N2C(=O)c3ccccc3NC2(C)C)cc1` the same measures were over 100000 nM, over 9970 nM and over 12500 nM.
For `Cc1nn(-c2cc(N3CCOCC3)ccc2[N+](=O)[O-])c(=O)c2ccccc12` the same measures were over 10000 nM, over 995 nM and over 1250 nM.
Take `CCOC(=O)c1ccc(NC(=O)c2sc(NC(=O)c3cc(OC)c(OC)c(OC)c3)c(C(=O)OCC)c2C)cc1`: the CC50 in data set [1] is over 10000 nM. Besides, the results for the concentration for a half-maximal effect (EC50) in data set [2] and in data set [3] were over 995 nM and over 1250 nM, respectively.
In data set [1], `O=C(/C=C/c1ccccc1Cl)Nc1ccc(Oc2ccc3ccccc3c2Cl)c(Cl)c1` registered a CC50 of over 10000 nM. Further, the EC50 in data set [2] is over 958 nM; in data set [3], over 1250 nM.
In data set [1], `O=C(Nc1ccccc1Cl)NC1(C(=O)NCC2CCCO2)CCCCC1` (configuration not stated) gave a half-maximal cytotoxic concentration (CC50) of over 10000 nM. The EC50 in data set [2] was over 984 nM; in data set [3], over 1250 nM.
As to `CC(C)CNC(=O)c1cnc(NCCCN(C)C)nc1NCCc1ccccc1`, the half-maximal cytotoxic concentration (CC50) in data set [1] was over 10000 nM. In addition, the EC50 in data set [2] was 983 nM; in data set [3], over 1250 nM.
Turning to `O=C(O)c1c[nH]c2cc(N3CCCCCC3)c(F)cc2c1=O`, in data set [1], the CC50 was over 100000 nM. Moreover, the EC50 was over 9800 nM in data set [2] and over 12500 nM in data set [3].
With `COc1ccc(CN2CCN(C(=O)c3sc4ncn(Cc5ccccc5F)c(=O)c4c3C)CC2)c(OC)c1OC`, in data set [1], the CC50 is over 10000 nM. Further, the EC50 in data set [2] was 1010 nM; in data set [3] it was over 1250 nM.
For `Cc1c(Cl)cccc1NC(=O)CCC(=O)NNC(=O)c1ccccc1` the same measures were over 10000 nM, over 1010 nM and over 1250 nM.
In the same order, the values of `CS(=O)(=O)Nc1cccc(-c2cnc(N)c(-c3ccc(C(=O)N4CCOCC4)cc3)n2)c1` are over 10000 nM, over 976 nM and over 1250 nM.
In the same order, the values of `CCN1CCN(c2cc(C)c3cc(NC(=O)/C=C/c4ccccc4Cl)ccc3n2)CC1` are over 10000 nM, 966 nM and over 1250 nM.
The compound `CC1CC(C)(C)NC(=S)N1CCC(=O)NCCc1ccccc1` (configuration not stated) returned a CC50 in data set [1] of over 10000 nM. The EC50 in data set [2] was 1010 nM; in data set [3], over 1250 nM.
In turn, `CC(C)CNc1nc(NCCN2CCCCC2)ncc1C(=O)NCc1ccccc1` registered a CC50 in data set [1] of over 10000 nM. Further, the EC50 in data set [2] is 1000 nM; in data set [3], over 1250 nM.
In the same order, the values of `COc1ccc(CCNc2nc(NCCCn3ccnc3)ncc2C(=O)NCc2ccccc2)cc1OC` are over 10000 nM, 1000 nM and over 1250 nM.
For the compound `OCC1CCCN1c1nccnc1-c1ccccc1Oc1ccccc1` (configuration not stated), in data set [1], the CC50 is over 10000 nM. The values for the EC50 in data set [2] and in data set [3] were over 868 nM and over 1250 nM, respectively.
`CCN(CC)Cc1cc(Nc2nc3ccccc3[nH]2)cc(CN(CC)CC)c1O` showed a CC50 in data set [1] of over 10000 nM. Also, the EC50 in data set [2] was 864 nM; in data set [3] it was over 1250 nM.
`COc1ccc(Cn2nnnc2CN2CCc3ccccc3C2)cc1` returned a half-maximal cytotoxic concentration (CC50) in data set [1] of over 10000 nM. Besides, the EC50 in data set [2] is over 853 nM; in data set [3], over 1250 nM.
For `O=C(O)CC12CC3CC(C1)CC(c1ccc([N+](=O)[O-])cc1)(C3)C2` the same measures were over 10000 nM, over 883 nM and over 1250 nM.
For `COc1ccc(/C=C/C(=O)Nc2ccc3nc(N4CCN(C)CC4)cc(C)c3c2)cc1OC` the same measures were over 10000 nM, 872 nM and over 1250 nM.
In the same order, the values of `Cc1c(NC(=S)N2CCOCC2)c(=O)n(-c2ccccc2)n1C` are over 10000 nM, over 919 nM and over 1250 nM.
In the case of `O=C(CSc1nnc2c(n1)[nH]c1ccccc12)Nc1ccc([N+](=O)[O-])cc1`, in data set [1], the CC50 was over 100000 nM. The EC50 was 9110 nM in data set [2] and over 12500 nM in data set [3].
In data set [1], `COc1cc(O)c2c(=O)cc(CCOC(=O)Nc3ccccc3)[nH]c2c1` registered a CC50 of over 10000 nM. Moreover, the EC50 was over 905 nM in data set [2] and over 1250 nM in data set [3].
In the same order, the values of `Cc1cc(C)n(-c2ccc(NC(=O)C3CCN(Cc4cc(C)c(C)o4)CC3)cc2)n1` are over 10000 nM, 888 nM and over 1250 nM.
In turn, `Nc1ccc(-c2cc(N)n(-c3ccc(Oc4ccccc4)c(S(=O)(=O)O)c3)n2)cc1` came in with a CC50 in data set [1] of over 10000 nM. The values for the EC50 in data set [2] and in data set [3] were over 921 nM and over 1250 nM, respectively.
For the compound `CC(C)CNC(=O)c1cnc(NCCC2CCCN2C)nc1NCC1CCCCC1` (configuration not stated), the cytotoxic concentration (CC50) in data set [1] is over 10000 nM. Further, the results for the EC50 in data set [2] and in data set [3] were 920 nM and over 1250 nM, respectively.
For `O=C(COC(=O)c1ccc2c(c1)C(=O)N(c1ccc3ccccc3c1)C2=O)c1ccc(Br)cc1` the same measures were over 10000 nM, over 919 nM and over 1250 nM.
In the case of `CN(C)c1nnc(/C(C#N)=C/c2cc(C(=O)c3cccc(Cl)c3)cn2C)o1`, the CC50 in data set [1] is over 10000 nM. Also, the EC50 was 936 nM in data set [2] and over 1250 nM in data set [3].
In the same order, the values of `c1cn2c(-c3ccc(N4CCOCC4)cc3)cnc2c(NCc2ccc3c(c2)OCO3)n1` are over 10000 nM, over 927 nM and over 1250 nM.
In the same order, the values of `CN(C)CCCNC(=O)c1ccc(-c2cncc(-c3cccc(O)c3)n2)cc1` are over 10000 nM, 923 nM and over 1250 nM.
In the same order, the values of `O=[N+]([O-])c1cc(NC2OC(CO)C(OC3OC(CO)C(O)C(O)C3O)C(O)C2O)ccc1Cl` (configuration not stated) are over 10000 nM, over 848 nM and over 1250 nM.
On to `Cc1ccccc1Oc1ccc(S(=O)(=O)NC(CC(C)C)C(=O)O)cc1` (configuration not stated), for which the CC50 in data set [1] was over 10000 nM. Besides, the EC50 in data set [2] was over 846 nM; in data set [3], over 1250 nM.
In the same order, the values of `O=C(NCc1ccccc1)c1cnc(NCCN2CCCCC2)nc1NCCc1ccccc1` are over 10000 nM, 950 nM and over 1250 nM.
In the same order, the values of `CC1CCCCN1CCCNc1ncc(C(=O)NCc2ccccc2)c(NC2CCCC2)n1` (configuration not stated) are over 10000 nM, 943 nM and over 1250 nM.
Compound `CC1(C)CC(=O)c2cc(-c3ccc(Br)cc3)n(-c3ccccc3F)c2C1` yielded a CC50 in data set [1] of over 10000 nM. The values for the EC50 in data set [2] and in data set [3] were over 972 nM and over 1250 nM, respectively.
Take `CCN1CC=C2C(C#N)=C(N)C(C#N)(C#N)C(c3ccc(C)s3)C2C1` (configuration not stated): the cytotoxic concentration (CC50) in data set [1] is over 10000 nM. Also, the EC50 in data set [2] is over 877 nM; in data set [3], over 1250 nM.
For `CC(=O)C1=C(O)C(=O)N(c2ccc(Br)cn2)C1c1ccccc1[N+](=O)[O-]` (configuration not stated) the same measures were over 100000 nM, over 9610 nM and over 12500 nM.
`CCCCCOC(=O)C1=C(C)Nc2ncnn2C1c1cccc([N+](=O)[O-])c1` (configuration not stated) yielded a CC50 in data set [1] of over 10000 nM. For the same compound, the EC50 in data set [2] is over 988 nM; in data set [3], over 1250 nM.
Compound `CN1CCN(C(=O)c2cccc(-c3nc(-c4ccncc4)cnc3N)c2)CC1` yielded a 50% cytotoxic concentration (CC50) in data set [1] of over 10000 nM. In addition, the EC50 was over 1000 nM in data set [2] and over 1250 nM in data set [3].
`CCN(CC)c1ccc2c(c1)OC(N)=C(C#N)C2c1ccsc1` (configuration not stated) displayed a CC50 in data set [1] of over 100000 nM. In addition, the EC50 is over 9540 nM in data set [2] and over 12500 nM in data set [3].
For `Cc1ccc2c(nc3sc(=Cc4ccc(-c5ccccc5F)o4)c(=O)n32)c1C` the same measures were over 10000 nM, 921 nM and over 1250 nM.
`CC1(C)CC(=O)C(=CNc2nc3c(s2)CCc2c-3cnn2-c2ccccc2)C(=O)C1` displayed a CC50 in data set [1] of over 10000 nM. Moreover, the EC50 in data set [2] is over 942 nM; in data set [3], over 1250 nM.
For `FC(F)(F)COc1ccc(OCC(F)(F)F)c(-c2ncnn2-c2ccccc2)c1` the same measures were over 100000 nM, over 9910 nM and over 12500 nM.
For `O=C(Cn1c2ccccc2c(=O)c2cc([N+](=O)[O-])ccc21)Nc1cccc(Cl)c1` the same measures were over 10000 nM, over 880 nM and over 1250 nM.
In the same order, the values of `CC1CCCCN1CCCNc1ncc(C(=O)NCCCN2CCCC2=O)c(NCC2CCCCC2)n1` (configuration not stated) are over 10000 nM, 850 nM and over 1250 nM.
In turn, `CC1Cc2ccccc2N1C(=O)Cn1c(=O)oc2ccccc21` (configuration not stated) showed a half-maximal cytotoxic concentration (CC50) in data set [1] of over 10000 nM. Also, the EC50 was over 907 nM in data set [2] and over 1250 nM in data set [3].
For `CCCCCc1ccc(-c2cn3nc(CCCCC)sc3n2)cc1` the same measures were over 10000 nM, over 921 nM and over 1250 nM.

The values above are taken from ChEMBL document CHEMBL1156829 (Proc Natl Acad Sci U S A, 2008).
